Holding throughout (assay): In vitro antifungal activity, IC80 (Method B)
What all share (format): cell-based

Experiment [1] relates to A. fumigatus. Particulars: Aspergillus fumigatus, 1×10^4 cells/ml, 1-2 days, 27° C., 0.2% agar, read-out: Antifungal activity IC80. The procedure: (§1) The in vitro antifungal activities of the representative compounds of the present invention shown in Table 1 and Table 2 were measured by determining the minimal inhibitory concentrations (MIC: Method A) or 80% growth inhibition concentration (IC80 : Method B) respectively. MIC is defined as the concentration of an antifungal at which growth of fungi is not observed and IC80 is the concentration where cell turbidity measured at OD630 is reduced by 80%.
(§2) Antifungal activities were determined by either method A or B (see below) using microtest plates according NCCLS with minor modifications (Galgiani et at., Antimicrob. Agents Chemother. 33, 731 (1989)).
(§3) (Method B) The medium for yeast was buffered to pH 7.0 with 0.25% K2 HPO4 in Yeast Nitrogen Base (Difco Lab.). For the filamentous fungi, 0.2% of low melting point agar was supplemented to the above medium. Inoculum size was 1×10^4 cells/ml, and incubation was carried out for 1-2 days at 27° C. Fluconazole (Pfizer) was used as reference.

In experiment [2] the test system is C. neoformans. Particulars: Cryptococcus neoformans, 1-2 days, 27° C., read-out: Antifungal activity IC80. The protocol:
as §1, §2, §3

For experiment [3], the system named is Candida albicans. The note with it: 1-2 days, 27° C., read-out: Antifungal activity IC80. The protocol:
as §1, §2, §3

[4] abbreviates: pH 7, C. neoformans CY1057, 1×10^4 cells/ml.
[5] abbreviates: pH 7, C. neoformans CY1059, 1×10^4 cells/ml.
Setting [6] is: pH 7, Candida albicans CY1002, 1×10^4 cells/ml.
[7] abbreviates: pH 7, Candida albicans CY1005, 1×10^4 cells/ml.
Where [8] appears, read: pH 7, Candida albicans CY3003, 1×10^4 cells/ml.

Among the data in patent US5719291A, “Cyclohexane derivatives” (Hoffmann-La Roche Inc., priority 1991, dated 1998) are IC80 values, retold here.

≈ marks a conversion by molar mass, not a printed value. Like-named read-outs stand apart in the source and are kept apart here.

For `CO[C@@H]1[C@@H](Cn2cncn2)[C@H](CSc2ccc(Cl)cc2)CCC1(C)C` [Example 73, 1-[[(1R,2R,6R)-6-[(4-chlorophenylthio)methyl]-2-methoxy-3,3-dimethylcyclohexyl]methyl]-1H-1,2,4-triazole], the IC80 stood at 23 µg/mL (≈ 60.5 µM) in experiment [1] (A. fumigatus CF1003); 23 µg/mL (≈ 60.5 µM) in experiment [1] (A. fumigatus CF1004); 5.8 µg/mL (≈ 15.3 µM) in experiment [2] (setting [4]); 6.1 µg/mL (≈ 16.1 µM) in experiment [2] (setting [5]); 0.008 µg/mL (≈ 0.0211 µM) in experiment [3] (setting [6]); 0.011 µg/mL (≈ 0.029 µM) in experiment [3] (setting [7]). Also, the IC80 in experiment [3] (setting [8]) is 0.02 µg/mL (≈ 0.0526 µM).

For `CO[C@@H]1[C@@H](Cn2cncn2)[C@H](CCc2ccc(C)cc2)CCC1(C)C` [Example 74], the IC80 in experiment [1] (A. fumigatus CF1003) stood at 20 µg/mL (≈ 58.6 µM); in experiment [1] (A. fumigatus CF1004), 24 µg/mL (≈ 70.3 µM); in experiment [2] (setting [4]) it was 0.46 µg/mL (≈ 1.35 µM); in experiment [2] (setting [5]), 3.8 µg/mL (≈ 11.1 µM); in experiment [3] (setting [6]), 0.076 µg/mL (≈ 0.223 µM); in experiment [3] (setting [7]) it was 0.093 µg/mL (≈ 0.272 µM). Besides, the IC80 in experiment [3] (setting [8]) is 0.038 µg/mL (≈ 0.111 µM).

As for `CO[C@@H]1[C@@H](Cn2cncn2)[C@H](CCc2ccc3ccccc3c2)CCC1(C)C` [Example 75, 1-[[(1R,2R,6R)-2-methoxy-3,3-dimethyl-6-(2-b-naphthylethyl)cyclohexyl]methyl]-1H,1,1,4-triazole], the IC80 in experiment [1] (A. fumigatus CF1003) is more than 200 µg/mL; in experiment [1] (A. fumigatus CF1004), more than 200 µg/mL; in experiment [2] (setting [4]) it was 0.19 µg/mL (≈ 0.503 µM); in experiment [2] (setting [5]), 1.3 µg/mL (≈ 3.44 µM); in experiment [3] (setting [6]), 0.18 µg/mL (≈ 0.477 µM); in experiment [3] (setting [7]) it was 0.2 µg/mL (≈ 0.53 µM). The IC80 in experiment [3] (setting [8]) amounted to 0.34 µg/mL (≈ 0.901 µM).

`CO[C@@H]1[C@@H](Cn2cncn2)[C@H](CCc2ccc3ccccc3n2)CCC1(C)C` [Example 76, 1-[[(1R,2R,6S)-2-methoxy-3,3-dimethyl-6-(2-quinolin-2-ylethyl)cyclohexyl]methyl]-1H,1,2,4-triazole]: the IC80 in experiment [1] (A. fumigatus CF1003) is 30 µg/mL (≈ 79.3 µM); in experiment [1] (A. fumigatus CF1004), 36 µg/mL (≈ 95.1 µM); in experiment [2] (setting [4]) it was 10 µg/mL (≈ 26.4 µM); in experiment [2] (setting [5]), 30 µg/mL (≈ 79.3 µM); in experiment [3] (setting [6]), 0.38 µg/mL (≈ 1 µM); in experiment [3] (setting [7]), 0.77 µg/mL (≈ 2.03 µM). Further, in experiment [3] (setting [8]), the IC80 came to 0.36 µg/mL (≈ 0.951 µM).

Regarding `CO[C@@H]1[C@@H](Cn2cncn2)[C@H](CCc2ccc(C(F)(F)F)cc2)CCC1(C)C` [Example 77], the IC80 in experiment [1] (A. fumigatus CF1003) is more than 200 µg/mL; in experiment [1] (A. fumigatus CF1004), more than 200 µg/mL; in experiment [2] (setting [4]), 0.39 µg/mL (≈ 0.986 µM); in experiment [2] (setting [5]) it was 3.2 µg/mL (≈ 8.09 µM); in experiment [3] (setting [6]) it was 0.16 µg/mL (≈ 0.405 µM); in experiment [3] (setting [7]), 0.18 µg/mL (≈ 0.455 µM). For the same molecule, the IC80 in experiment [3] (setting [8]) was determined as 0.093 µg/mL (≈ 0.235 µM).

As for `CO[C@@H]1[C@@H](Cn2cncn2)[C@H](CCc2ccc(OC(F)(F)F)cc2)CCC1(C)C` [Example 78, 1-[[(1R,2R,6R)-6-(p-trifluoromethoxyphenethyl)-2-methoxy-3,3-dimethylcyclohexyl]methyl]-1H-1,2,4-triazole], the IC80 in experiment [1] (A. fumigatus CF1003) is more than 200 µg/mL; in experiment [1] (A. fumigatus CF1004), more than 200 µg/mL; in experiment [2] (setting [4]) it was 8.4 µg/mL (≈ 20.4 µM); in experiment [2] (setting [5]), 21 µg/mL (≈ 51 µM); in experiment [3] (setting [6]), 0.03 µg/mL (≈ 0.0729 µM); in experiment [3] (setting [7]), 0.093 µg/mL (≈ 0.226 µM). In experiment [3] (setting [8]), the IC80 came out at 0.071 µg/mL (≈ 0.173 µM).

Consider `COc1ccc(CC[C@@H]2CCC(C)(C)[C@H](OC)[C@H]2Cn2cncn2)cc1` [Example 79, 1-[[(1R,2R,6R)-2-methoxy-6-(p-methoxyphenethyl)-3,3-dimethylcyclohexyl]methyl]-1H,1,2,4-triazole], for which the IC80 was more than 200 µg/mL in experiment [1] (A. fumigatus CF1003); more than 200 µg/mL in experiment [1] (A. fumigatus CF1004); 0.86 µg/mL (≈ 2.41 µM) in experiment [2] (setting [4]); 4.7 µg/mL (≈ 13.1 µM) in experiment [2] (setting [5]); 0.023 µg/mL (≈ 0.0643 µM) in experiment [3] (setting [6]); 0.024 µg/mL (≈ 0.0671 µM) in experiment [3] (setting [7]). Besides, the IC80 in experiment [3] (setting [8]) worked out at 0.02 µg/mL (≈ 0.0559 µM).

In the case of `CO[C@@H]1[C@@H](Cn2cncn2)[C@H](CCc2ccc(F)cc2F)CCC1(C)C` [Example 80, 1-[[(1R,2R,6S)-6-(2,4-difluorophenethyl)-2-methoxy-3,3-dimethylcyclohexyl]methyl]-1H-1,2,4-triazole], the IC80 amounted to 93 µg/mL (≈ 256 µM) in experiment [1] (A. fumigatus CF1003); 40 µg/mL (≈ 110 µM) in experiment [1] (A. fumigatus CF1004); 11 µg/mL (≈ 30.3 µM) in experiment [2] (setting [4]); 12 µg/mL (≈ 33 µM) in experiment [2] (setting [5]); 0.35 µg/mL (≈ 0.963 µM) in experiment [3] (setting [6]); 0.65 µg/mL (≈ 1.79 µM) in experiment [3] (setting [7]). Also, the IC80 in experiment [3] (setting [8]) turned out to be 0.19 µg/mL (≈ 0.523 µM).
